# Laboratory results taken from patent US20060057181A1, “Method for determining the gastric evacuation using a 13c-labelled test meal” (priority 2002, published 2006).
# Experiment: 13C-octanoic acid breath test of gastric emptying: 13CO2 excretion in exhaled respiratory air measured by IRMS after test meal
# Experimental: The thus formed ^13CO2 is then measured in the exhaled respiratory air by means of IRMS. IRMS (isotope ratio mass spectrography) has in the meantime become the most sensitive and best method for determining ^13CO2 in the exhaled respiratory air.
# Therefore, the sampling and optimum calculation take three to four hours. The interval for sampling is optimal at 15 min.
# Further, the patient need not sit calmly between the measuring devices for radioactivity. Rather, it is sufficient if they blow samples of their respiratory air into collecting devices every 12 minutes. For example, the so-called vacutainerss are particularly suitable for this purpose. These samples of the exhaled respiratory air may then be measured and evaluated in a central laboratory with a correspondingly sensitive IRMS equipment.
structure (smiles),measurement,setting,value
CCCCCCC[13C](=O)O [^13C-octanoic acid],maximum of 13CO2 excretion,"normal gastric emptying (patient No. 1), free 13C-octanoic acid bound to egg yolk, oral test meal, exhaled air, IRMS",> 2.9 h
same,maximum of 13CO2 excretion,somewhat faster gastric emptying (patient No. 5),> 2.9 h
same,maximum of 13CO2 excretion,very delayed gastric emptying (patient No. 4),< 2.5 h
